Results published in patent publication US5656660A, “Compositions and methods for treating mast-cell mediated conditions” (Arris Pharmaceutical Corporation, priority 1995, dated 1997).

Experiments:
antigen-challenged sheep [1] = test: Allergic sheep model of asthma, oral (intergastric tube): Specific Lung Resistance (SRL); type: in vivo
From the text: (§1) The allergic sheep model of asthma was employed for the in vivo evaluation of the compounds of the invention as antiasthmatics. These methods have been published previously (see Abraham et al. (1983) Am. Rev. Respir. Dis. 128:839-844; Allegra et al. (1983) J. Appl. Physiol. 55:726-730; Russi et al. (1985) J. Appl. Physiol. 59:1416-1422; Soler et al. ((1989) J. Appl. Physiol. 67:406-413. Each sheep serves as its own control. Body weights for these animals ranged from 20-50 kilograms.
Three doses of Compound 2 (40 mg in 60 mL water) were administered to sheep through an intergastric tube 1 hr before challenge, 4 hours post-challenge, and 24 hours post-challenge.

antigen-challenged sheep [2] = test: Allergic sheep model of asthma, aerosol: Specific Lung Resistance (SRL) after antigen challenge; type: in vivo; conditions: aerosol 0.5 h before, 4 h after and 24 h after challenge, n=6; for early response to antigen challenge (SRL): peak immediately post-challenge; for late response to antigen challenge (SRL): peak within 6-8 h
Experimental: The initial asthmatic response can be evaluated in guinea pigs, and dogs, and particularly, with a basenji-greyhound cross strain which develops nonspecific airway hyperresponsiveness to numerous nonallergenic substances, such as methacholine and citric acid. […] In dual responding animals, the initial asthmatic response (IAR) is followed by a late asthmatic response (LAR) at 6-8 hours post-exposure.
The allergic sheep model (see below) was used to evaluate the potential antiasthmatic effects of the compounds of the present invention.
as §1
(§2) In these studies, […] of Compound 2 of the invention was dissolved in buffered saline and the total solution delivered as an aerosol 0.5 hours before, 4 hours after, and 24 hours after antigen challenge (total dose=27; n=6). […] The peak early response was taken as the average of the maximum values occurring immediately post-challenge. Peak late responses were calculated by averaging the maximum response values obtained for each animal within the 6-8 hour time period. This approach is conservative and eliminates the possible reduction in the late response due simply to averaging.

tryptase = test: In vitro tryptase inhibition assay; type: biochemical, human; conditions: tosyl-Gly-Pro-Lys-p-nitroanilide 0.5 mM; 1 h preincubation at room temperature; pH 8.2
Experimental: The compounds to be assayed (approximately 1 mg) were dissolved in 200 μL dimethylsulfoxide (DMSO) and diluted 1:10 into buffer containing 50 millimolar (mM) Tris-HCl (pH 8.2), 100 mM sodium chloride, and 0.05% polyoxyethylenesorbitan monolaurate (Tween-20°, available from Sigma, St. Louis, Mo.). Seven additional threefold dilutions were made from the initial dilution into the same buffer supplemented with 10% DMSO. Aliquots (50 microliters, μL) from each of the eight dilutions in the series were transferred to individual wells in a 96-well U-bottom microtiter plate. […] The tryptase solution was prepared by placing 60 μg/mL of tryptase into solution with 10 mM MES (2-[N-Morpholino]ethane sulfonic acid) containing 2 mM CaCl2, 20% glycerol and 50 μg/mL heparin. The enzyme reaction was initiated with the addition of the synthetic tripeptide substrate, tosyl-Gly-Pro-Lys-p-nitroanilide (available from Sigma, 25 μL; 0.5 mM final concentration). […] Initial velocity measurements calculated from the progress curves by a kinetic analysis program (BatchKi; Petr Kuzmic, University of Wisconsin, Madison, Wis.) were used to determine apparent inhibition constants for each inhibitor.

antigen-challenged sheep [3] = test: Allergic sheep model of asthma: airway hyperresponsiveness (PC400, carbachol); type: in vivo; conditions: aerosol; for PC400, concentration of carbachol that causes a 400% increase in SRL / onset of hyperresponsiveness: 24 h after antigen challenge
From the text: as §1, §2
Twenty-four hours after antigen challenge in both the control and drug trial, the sheep developed airway hyperresponsiveness. Airway hyperresponsiveness is expressed as PC400, the concentration of carbachol that causes a 400% increase in SRL; therefore, a decrease in PC400 indicates hyperresponsiveness. […] The number of breath units fell to 10±4 for those animals in the control group.

| Compound | Ki (tryptase) | further results |
| --- | --- | --- |
| N=C(N)Nc1ccc(CNC(=O)CNC(=O)OCc2ccc(COC(=O)NCC(=O)NCc3ccc(NC(=N)N)cc3)cc2)cc1 [Example 2, N,N'-(4-Guanidylbenzylaminecarbonylmethylene)-1,4-benzenedimethanol dicarbamate] | 0.02 µM | early phase SRL (antigen-challenged sheep [1]; 40 mg in 60 mL water by intergastric tube 1 h before, 4 h and 24 h post-challenge, untreated about 350): about 270; late phase SRL (antigen-challenged sheep [1]; 40 mg in 60 mL water by intergastric tube 1 h before, 4 h and 24 h post-challenge, untreated over 150): about 70; anti-asthmatic properties when delivered orally (antigen-challenged sheep [1]; 40 mg in 60 mL water, intergastric tube, three doses): significant anti-asthmatic properties; early response to antigen challenge (SRL) (antigen-challenged sheep [2]): statistically significant reduction in the early response; late response to antigen challenge (SRL) (antigen-challenged sheep [2]): attenuated the late response; PC400, concentration of carbachol that causes a 400% increase in SRL (antigen-challenged sheep [3]): 24±6 breath units; onset of hyperresponsiveness (antigen-challenged sheep [3]): block the onset of hyperresponsiveness; improvement in airway function in antigen challenged sheep (antigen-challenged sheep [3]): statistically significant improvement in airway function |
| NCc1ccc(CNC(=O)CCC(=O)NCc2ccc(CNC(=O)CCC(=O)NCc3ccc(CN)cc3)cc2)cc1 [Example 8, N,N'-bis(N-(4-aminomethylbenzyl)-succinamido)-p-xylylenediamide] | 0.00345 µM | early response to antigen challenge (SRL) (antigen-challenged sheep [2]): statistically significant early and late increases in SRL; late response to antigen challenge (SRL) (antigen-challenged sheep [2]): statistically significant early and late increases in SRL; PC400, concentration of carbachol that causes a 400% increase in SRL (antigen-challenged sheep [3]): 15±10 breath units; onset of hyperresponsiveness (antigen-challenged sheep [3]): block the onset of hyperresponsiveness; improvement in airway function in antigen challenged sheep (antigen-challenged sheep [3]): statistically significant improvement in airway function |
| N=C(N)NCc1ccc(NC(=O)CNC(=O)OCc2ccc(COC(=O)NCC(=O)Nc3ccc(CNC(=N)N)cc3)cc2)cc1 [Example 43, Bis((4-guanidomethylanilido)glycine)-1,4-benzenedimethanol dicarbamate] | 8.1 µM |  |
| NCc1cccc(CNC(=O)CNC(=O)OCc2ccc(COC(=O)NCC(=O)NCc3cccc(CN)c3)cc2)c1 [Example 44, Bis((3-aminomethylbenzylamido)glycine)-1,4-benzenedimethanol dicarbamate] | 0.055 µM |  |
| NC[C@H]1CC[C@H](CNC(=O)CNC(=O)OCc2ccc(COC(=O)NCC(=O)NC[C@H]3CC[C@H](CN)CC3)cc2)CC1 [Example 45, Bis(trans-1,4-cyclohexyldimethylamine-glycine)-1,4-benzenedimethanol dicarbamate] | 0.01 µM |  |
| N=C(N)Nc1ccc(CNC(=O)CNC(=O)NCc2ccc(CNC(=O)NCC(=O)NCc3ccc(NC(=N)N)cc3)cc2)cc1 [Example 46, 4-(Guanidinobenzylamido)glycine-1,4-xylylene diurea] | 0.01 µM |  |
| NCc1ccc(CNC(=O)NCC(=O)NCc2ccc(CNC(=O)CNC(=O)NCc3ccc(CN)cc3)cc2)cc1 [Example 47, Bis(N-(4-aminomethylbenzyl)glycylurea)-p-xylylene diamide] | 0.062 µM |  |
| N=C(N)Nc1ccc(CNC(=O)NCC(=O)NCc2ccc(CNC(=O)CNC(=O)NCc3ccc(NC(=N)N)cc3)cc2)cc1 [Example 48] | 0.7 µM |  |
| NCC1CCC(C(=O)NCCCC(=O)NCc2ccc(CNC(=O)CCCNC(=O)C3CCC(CN)CC3)cc2)CC1 (stereo not shown) [Example 49] | 0.366 µM |  |
| NCc1ccc(CNC(=O)NCC(=O)NCCc2ccc(NC(=O)CNC(=O)NCc3ccc(CN)cc3)cc2)cc1 [Example 50, Bis(N-(4-aminomethylbenzyl)glycylurea)-1,4-phenethylenediamide] | 0.043 µM |  |
| CN(Cc1ccc(CN(C)C(=O)CNC(=O)NC[C@H]2CC[C@H](CN)CC2)cc1)C(=O)CNC(=O)NC[C@H]1CC[C@H](CN)CC1 [Example 51, N,N'-Bis(methyl)-bis(glycine-trans-1,4-cyclohexylbis(methylamine)urea)-p-xylylene diamide] | 0.13 µM |  |
| CN(Cc1ccc(CN(C)C(=O)CNC(=O)NCc2ccc(CN)cc2)cc1)C(=O)CNC(=O)NCc1ccc(CN)cc1 [Example 52, N,N'-Bis(methyl)-bis(glycine-p-xylylenediamine urea)-p-xylylene diamide] | 0.079 µM |  |
| CN(Cc1ccc(CN(C)C(=O)c2ccc(CNC(=O)NC[C@H]3CC[C@H](CN)CC3)cc2)cc1)C(=O)c1ccc(CNC(=O)NC[C@H]2CC[C@H](CN)CC2)cc1 [Example 53] | 1.2 µM |  |
| CN(Cc1ccc(CN(C)C(=O)CN(C)C(=O)NC[C@H]2CC[C@H](CN)CC2)cc1)C(=O)CN(C)C(=O)NC[C@H]1CC[C@H](CN)CC1 [Example 54, N,N'-Bis(methyl)-bis(sarcosine-trans-1,4-cyclohexylbis(methylamine)urea)-p-xylylene diamide] | 0.608 µM |  |
| Bis((R,S)-2-(2-(4-guanidinobenzylamino)-2,3-dehydro-6-piperidone)-1,4-benzenedimethanol dicarbmate [Example 41] | 0.611 µM |  |
